As usually defined, the IC50 is the concentration needed to halve the response being measured.

We go through one molecule from ChEMBL document CHEMBL5729111, “CD73 inhibitors and therapeutic uses thereof” (2022).

Each structure is given as a SMILES string.

This test addresses 5'-nucleotidase (Homo sapiens, UniProt P21589). Kind of test: Enzyme Activity In Vitro Assay: I. Experimental Materials and Equipment1. Malachite green phosphate detection kit (R & D Systems, Cat #, DY996)2. Recombinant human 5′-nucleotidase (CD73) (R & D Systems, Cat #, 5795-EN)3. HEPES buffer (Gibco, Cat #, 15630-080)4. CMP (Sigma, Cat #, C1006)5. DMSO (Fisher Chemical, Cat #, D128-1)6. NaCl 5M (Boston Bioproducts, Cat #, BM-244)7.384-well plate (Fisher, Cat #, 5795-EN)8. TECAN plate reader (TECAN)II. Experimental ProcedureCompounds are first dissolved in DMSO to 10 mM as a stock solution. When determining the IC50 of the compound, prepare 3-fold serial dilutions with a highest concentration of 125 μM for a total of 12 concentration points and ensure each dilution containing equal amount of DMSO. In each well of 384-well plate, 0.34 nM of recombinant human 5′-nucleotidase (CD73) was pre-incubated at 37° C. for 2 hours with the compounds tested in assay buffer containing 20 mM HEPES buffer (pH 7.4), 137 mM NaCl, 0.001% Tween 20. The final reaction volume of the reaction in each well was 12 μL. The highest concentration of compound was 125 μM and the DMSO concentration was 1.25%. After pre-incubation, 3 μL of CMP dissolved in assay buffer was added to each reaction. The final CMP concentration was 45 μM. The reaction was incubated at 37° C. for 15 minutes. Then 3 μL of Malachite Green Reagent A was added to each reaction. […].

Chain of 5'-nucleotidase (P21589 whole entry): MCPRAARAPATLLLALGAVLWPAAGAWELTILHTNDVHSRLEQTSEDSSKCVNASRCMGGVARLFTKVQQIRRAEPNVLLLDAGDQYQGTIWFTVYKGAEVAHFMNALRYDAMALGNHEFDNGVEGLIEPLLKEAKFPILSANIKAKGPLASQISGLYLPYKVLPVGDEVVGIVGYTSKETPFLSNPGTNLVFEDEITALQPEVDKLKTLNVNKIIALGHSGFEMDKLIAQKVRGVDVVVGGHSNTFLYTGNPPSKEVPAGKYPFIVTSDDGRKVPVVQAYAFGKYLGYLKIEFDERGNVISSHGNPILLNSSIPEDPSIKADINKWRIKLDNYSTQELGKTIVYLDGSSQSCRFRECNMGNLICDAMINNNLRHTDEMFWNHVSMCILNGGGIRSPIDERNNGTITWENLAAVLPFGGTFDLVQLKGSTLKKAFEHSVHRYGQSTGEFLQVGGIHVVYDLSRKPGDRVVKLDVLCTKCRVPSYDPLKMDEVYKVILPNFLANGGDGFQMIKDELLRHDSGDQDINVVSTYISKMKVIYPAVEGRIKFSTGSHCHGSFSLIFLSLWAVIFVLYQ

Turning to `CC(OC(=O)C(C)(C)C)OP(=O)(COC[C@H]1O[C@@H](n2ncc3c(N4CC5(CCc6ccccc65)C4)nc(Cl)nc32)[C@H](O)[C@@H]1O)OC(C)OC(=O)C(C)(C)C` (stereo partly specified), the IC50 is 270 nM.
